In patent US12691107B2, “Methods for the treatment and prevention of lung infections caused by gram-positive bacteria, fungus, or virus by administration of tafenoquine” (priority 2020, dated 2026):

Tests used:
in vitro = settings: African green monkey
SARS-CoV-2 [1] = experiment: microbe, parasite or virus in culture; assay type: cell-based; settings: Severe acute respiratory syndrome coronavirus 2, Vero C1008, 96 h
Babesia = settings: mice; cited from earlier work
[2] = in vivo; cited from earlier work
[3] = system: replicating Mycobacterium tuberculosis; settings: cited from earlier work
[4] = system: Para-Influenza-3 virus, Reovirus, Sindbis virus, Cocsackie B4 virus, Punto Toro virus and Yellow Fever Virus; settings: cited from earlier work
SARS-CoV-2 [5] = settings: cited from earlier work
SARS-CoV-2 [6] = experiment: microbe, parasite or virus in culture; assay type: cell-based

For `CCC(CC)COC(=O)[C@H](C)N[P@](=O)(OC[C@H]1O[C@@](C#N)(c2ccc3c(N)ncnn23)[C@H](O)[C@@H]1O)Oc1ccccc1` [Remdesivir], which CC50 (in vitro) is on record?
The CC50 was over 100 µM.

What about the EC50 (SARS-CoV-2 [1]) of the same compound?
The EC50 was 0.7 µM.

For `COc1cc(NC(C)CCCN)c2ncccc2c1` (stereo not shown) [Primaquine], which “dose clearing Babesia parasitemia” value (Babesia) is on record?
The value was 100 mg/kg.

What about the half-life [2] of the same compound?
Its half-life is “approximately 6 hours”.

And the MIC [3]?
Its MIC is 256 microgram/ml.

And the EC50 [4]?
The EC50 was over 50 µM.

With `CCN(CCO)CCCC(C)Nc1ccnc2cc(Cl)ccc12` (stereo not shown) [Hydroxychloroquine] as the compound, how does the “fold less potent in CALU-3 than in VERO cells” value (SARS-CoV-2 [5]) read?
Its value is 10 fold.

What about the EC50 (SARS-CoV-2 [6]; Severe acute respiratory syndrome coronavirus 2, Vero C1008, Vero E6, moi 0.05, 48 hours, TCID50) of the same compound?
Its EC50 is 10.4 µM.

And the selectivity index (SARS-CoV-2 [6]; calculated relative to the CC50 for the 4-day test)?
Its selectivity index is 5.3.

What about the inhibition at 33 µM (SARS-CoV-2 [1]; 33 microM, 4-day assay, read-out: inhibition at the highest non-toxic concentration) of the same compound?
Its inhibition at 33 µM is 43%.
